In BindingDB's records for doi:10.1002/cbic.201000413 (The University of Edinburgh, 2011):
pKd, pKi: −log10 of the molar value. “And” between values parts separate entries of the source, which are not always exact repeats. Equal entries are not always repeated.

Experiments:
[1] = target: T1, Peptidyl-prolyl cis-trans isomerase A (Homo sapiens, UniProt P62937); test: ESI-MS Assay
Description: Electrospray mass spectrometry assay is a immunophilin-ligand binding assay which allows us to rapidly probe the affinity of potential inhibitors for CypA which rely on the use of soft-ESI conditions to preserve noncovalent interactions between protein and ligand.

[2] = target: T1, Peptidyl-prolyl cis-trans isomerase A; test: PPIase Assay
Description: The promising ligand from the results obtained from ESI-MS assay are subjected to PPIase in vitro assay. The PPIase assay assesses the abil9ity of ligands to inhibit the PPIase activity of CypA.

[3] = target: T1, Peptidyl-prolyl cis-trans isomerase A; test: Fluorescence Assay
Description: The promising ligand from the results obtained from ESI-MS assay are subjected to fluorescence in vitro assay. The fluorescence assay takes advantage of the presence of a single tryptophan residue (Trp121) located close to the active site of CypA.

T1 sequence (P62937 whole entry): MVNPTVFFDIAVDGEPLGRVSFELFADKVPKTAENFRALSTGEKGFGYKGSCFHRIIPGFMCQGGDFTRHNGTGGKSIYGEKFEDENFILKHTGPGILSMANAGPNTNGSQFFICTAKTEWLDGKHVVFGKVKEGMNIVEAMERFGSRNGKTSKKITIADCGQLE

Compound	pKd [1]	pKi [2]	pKd [3]
COC(=O)[C@H](CCCN=C(N)N[N+](=O)[O-])C1C(=O)CC2C1=CC(=O)CC2(C)C (some centres undefined) [Cyclophilin Inhibitor, 3c]	4.50	< 4.00	4.53
COC(=O)[C@H](CCCCNC(=O)OCc1ccccc1)C1C(=O)CC2C1=CC(=O)CC2(C)C (some centres undefined) [Cyclophilin Inhibitor, 3a]	3.89	< 4.00	4.64
COC(=O)[C@H](CCCCNS(=O)(=O)c1cccc2c(N(C)C)cccc12)C1C(=O)C[C@@H]2C1=CC(=O)CC2(C)C (some centres undefined) [Cyclophilin Inhibitor, 3f]	3.88	–	–

Next, values leading:

pKd [1]	pKi [2]	pKd [3]	Compound
4.07	< 4.00	–	COC(=O)[C@H](CCCCNC(C)=O)C1C(=O)CC2C1=CC(=O)CC2(C)C (some centres undefined) [Cyclophilin Inhibitor, 3d]
4.14	–	4.80 and < 4.30	COC(=O)[C@H](CCCCN)C1C(=O)CC2C1=CC(=O)CC2(C)C (some centres undefined) [Cyclophilin Inhibitor, 15]
3.95	3.68	4.66	COC(=O)[C@H](CCCCNS(=O)(=O)c1cccc2c(N(C)C)cccc12)C1C(=O)CC2C1=CC(=O)CC2(C)C (some centres undefined) [Cyclophilin Inhibitor, 3e]
